# Counter-ions that a name gives are not always drawn.
# Experiments:
# Assay type in all cases: cell-based
# S. aureus [1] = test: Combination therapy: Gentamycin with PDEA, visible growth; settings: Gentamycin 0 μg/ml
# Description: (§1) Different concentrations of Gentamycin in Mueller Hinton were prepared in 3 different concentrations of PDEA. E. coli and S. aureus were inoculated (10^5) and were incubated O/N.
# (§2) Readouts were “Clear” and “Foggy”.
# E. coli [2] = test: as above; settings: Gentamycin 0 μg/ml
# Description: as §1, §2
# Candida albicans = test: Minimum inhibitory concentration (MIC), visible growth, YPD broth
# Description: (§3) • 1. Using a sterile inoculating loop, transfer bacteria/Candida albicans from frozen stock culture and streak them on a fresh LA plate. • 2. Incubate the plate at 37° C. overnight (o/n) (18-24 h).
# (§4) • 1. Prepare bacterial culture by adding 20 ml Mueller Hinton broth (*) to a 250-ml Erlenmeyer flask with sidearm. • 2. Using a sterile inoculating loop, pick approximately 10 colonies from the o/n bacterial culture and transfer bacteria to the flask. • 3. Incubate the E-flask with bacteria on a rotating shaker at 37° C. until OD590=0.40. This OD should equal an approximate bacterial count of 1×10^8 cfu/ml (**) • This is measured using a colorimeter (or spectrophotometer). Set reference and press R (=reference) first, then measure the bacterial culture by pressing T (=test). • 4. At OD590 0.40, serially dilute the bacterial suspension 1:10 000 in Mueller Hinton broth to obtain a bacterial target concentration of 1×10^4 cfu/ml. Determine the initial inoculation by serially diluting 0.1 ml in 0.9 ml blanks of sterile PBS and plating 0.1 ml aliquots to LA plates, preferably. • 5. Different concentrations of the tested compound are prepared in 0.6-0.8 ml of the final dilution of bacterial suspension and placed in 2-ml test tubes. • 6. Incubate test tubes in an orbital shaker incubator at 37° C. for 24 h.
# (§5) • 7. Analyze visible growth, i.e. “Foggy” or “Clear”. MIC is being defined as the interval between the highest “Foggy” and the lowest “Clear” concentration of the compound.
# (*) When testing Candida albicans, Yeast extract Peptone Dextrose (YPD) broth is being used.
# (**) For Candida albicans it is equal to 1×10^7
# Different concentrations of PDEA were also prepared in Yeast extract Peptone Dextrose (YPD) broth. Candida albicans were inoculated to a concentration of 20 000 CFU/ml and incubated at 37° C. for 24 hours. Readouts were “Clear” and “Foggy”.
# Different concentrations of the quaternary ammonium PDEA (Example 2) were also prepared in Yeast extract Peptone Dextrose (YPD) broth. Candida albicans were inoculated to a concentration of 20 000 CFU/ml and incubated at 37° C. for 24 hours. Readouts were “Clear” and “Foggy”.
# Different concentrations of the Para position-PDEA” is (S)-4-pyridylthio cysteamine were also prepared in Yeast extract Peptone Dextrose (YPD) broth. Candida albicans were inoculated to a concentration of 20 000 CFU/ml and incubated at 37° C. for 24 hours. Readouts were “Clear” and “Foggy”.
# Different concentrations of “Carboxylic acid PDEA” is 3-(2-Pyridyldithio)propanoic acid (CAS: 68617-64-1) were also prepared in Yeast extract Peptone Dextrose (YPD) broth. Candida albicans were inoculated to a concentration of 20 000 CFU/ml and incubated at 37° C. for 24 hours. Readouts were “Clear” and “Foggy”.
# S. aureus [3] = test: Combination therapy: Fradiomycin with PDEA, visible growth; settings: Fradiomycin 0 μg/ml
# Description: (§6) Different concentrations of Fradiomycin in Mueller Hinton were prepared in 3 different concentrations of PDEA. E. coli and S. aureus were inoculated (10^5) and were incubated overnight. Readouts were “Clear” and “Foggy”.
# E. coli [4] = test: as above; settings: Fradiomycin 0 μg/ml
# Description: as §6
# Escherichia coli CFT073 = test: Minimum inhibitory concentration (MIC), visible growth
# Description: as §3, §4, §5
# (§7) Different concentrations of PDEA (Example 1) in Mueller Hinton medium were prepared. Bacteria were inoculated to a concentration of 20 000 CFU/ml and incubated at 37° C. for 24 hours. Minimum inhibitory concentrations (MICs) were determined by analyzing visible growth, i.e., readouts were “Clear” and “Foggy”.
# (§8) Different concentrations of the quaternary ammonium PDEA (Example 2) in Mueller Hinton medium were prepared. Bacteria were inoculated to a concentration of 20 000 CFU/ml and incubated at 37° C. for 24 hours. Minimum inhibitory concentrations (MICs) were determined by analyzing visible growth, i.e., readouts were “Clear” and “Foggy”.
# (§9) Different concentrations of this compound in Mueller Hinton medium were prepared. Bacteria were inoculated to a concentration of 20 000 CFU/ml and incubated at 37° C. for 24 hours. Minimum inhibitory concentrations (MICs) were determined by analyzing visible growth, i.e., readouts were “Clear” and “Foggy”.
# (§10) Different concentrations of this compound were prepared in Mueller Hinton broth. Bacteria were inoculated to a concentration of 20 000 CFU/ml and incubated at 37° C. for 24 hours. Minimum inhibitory concentrations (MICs) were determined by analyzing visible growth, i.e., readouts were “Clear” and “Foggy”.
# [5] = test system: Staphylococcus aureus B5381; test: as above
# Description: as §3, §4, §5, §7, §8, §9, §10
# [6] = test system: Klebsiella pneumoniae AO15200; test: as above
# Description: as §3, §4, §5, §7, §8, §9, §10
# [7] = test system: Enterococcus faecalis #28 (KI, Clinical Isolate); test: as above
# Description: as §3, §4, §5, §7, §8, §9, §10
# [8] = test system: Enterococcus faecium #11 (KI, Clinical Isolate); test: as above
# Description: as §3, §4, §5, §7, §8, §9, §10
compound,measurement,setting,value
"NCCSSc1ccccn1 [PDEA, 2-(Pyridyldithio)ethylamine (hydrochloride)]",Visible growth readout (Clear/Foggy),S. aureus [1]; PDEA 0.0125 mM,Foggy
same,Visible growth readout (Clear/Foggy),S. aureus [1]; PDEA 0.025 mM,Foggy
same,Visible growth readout (Clear/Foggy),S. aureus [1]; PDEA 0.05 mM,Foggy
same,Visible growth readout (Clear/Foggy),E. coli [2]; PDEA 0.0125 mM,Foggy
same,Visible growth readout (Clear/Foggy),E. coli [2]; PDEA 0.025 mM,Foggy
same,Visible growth readout (Clear/Foggy),E. coli [2]; PDEA 0.04 mM,Clear
same,visible growth readout,Candida albicans; 0.01 mM,Foggy
same,visible growth readout,Candida albicans; 0.025 mM,Foggy
same,visible growth readout,Candida albicans; 0.05 mM,Foggy
same,visible growth readout,Candida albicans; 0.1 mM,Foggy
same,visible growth readout,Candida albicans; 0.2 mM,Foggy
same,visible growth readout,Candida albicans; 0.4 mM,Foggy
same,visible growth readout,Candida albicans; 0.8 mM,Clear
same,visible growth readout,Candida albicans; 1.6 mM,Clear
same,MIC,"Candida albicans; Candida albicans, 24 h",400 to 800 µM
same,visible growth readout,S. aureus [3]; PDEA 0.0125 mM,Foggy
same,visible growth readout,S. aureus [3]; PDEA 0.025 mM,Foggy
same,visible growth readout,S. aureus [3]; PDEA 0.05 mM,Foggy
same,visible growth readout,E. coli [4]; PDEA 0.0125 mM,Foggy
same,visible growth readout,E. coli [4]; PDEA 0.025 mM,Foggy
same,visible growth readout,E. coli [4]; PDEA 0.05 mM,Clear
same,visible growth readout,Escherichia coli CFT073; 0.01 mM,Foggy
same,visible growth readout,Escherichia coli CFT073; 0.025 mM,Foggy
same,visible growth readout,Escherichia coli CFT073; 0.05 mM,Foggy
same,visible growth readout,Escherichia coli CFT073; 0.1 mM,Clear
same,MIC,"Escherichia coli CFT073; Escherichia coli, CFT073, 24 h",50 to 100 µM
same,visible growth readout,[5]; 0.05 mM,Foggy
same,visible growth readout,[5]; 0.1 mM,Foggy
same,visible growth readout,[5]; 0.2 mM,Clear
same,visible growth readout,[5]; 0.4 mM,Clear
same,MIC,"[5]; Staphylococcus aureus, B5381, 24 h",100 to 200 µM
same,visible growth readout,[6]; 0.01 mM,Foggy
same,visible growth readout,[6]; 0.025 mM,Foggy
same,visible growth readout,[6]; 0.05 mM,Foggy
same,visible growth readout,[6]; 0.1 mM,Clear
same,MIC,"[6]; Klebsiella pneumoniae, AO15200, 24 h",50 to 100 µM
same,visible growth readout,[7]; 0.05 mM,Foggy
same,visible growth readout,[7]; 0.1 mM,Foggy
same,visible growth readout,[7]; 0.2 mM,Clear
same,visible growth readout,[7]; 0.4 mM,Clear
same,MIC,"[7]; Enterococcus faecalis, 24 h",100 to 200 µM
same,visible growth readout,[8]; 0.01 mM,Foggy
same,visible growth readout,[8]; 0.025 mM,Foggy
same,visible growth readout,[8]; 0.05 mM,Clear
same,visible growth readout,[8]; 0.1 mM,Clear
same,MIC,"[8]; Enterococcus faecium, 24 h",25 to 50 µM

# Reference: patent US20250339415A1, “DISULFIDE COMPOUNDS AS MEDICAMENTS” (CYTACOAT AB, priority 2021, published 2025)
